Reference: patent US9630977B2, “Cephalosporin derivatives and pharmaceutical compositions thereof” (Legochem Biosciences, Inc., priority 2011, dated 2017)
In brackets after ≈: the same amount, converted by molar mass.

system: E. cloacae β19; assay: In vitro antibacterial activity test (broth microdilution); type: cell-based; details: Enterobacter cloacae, read-out: MIC90
Method in brief: (§1)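 Compounds were dissolved in DMSO at 10,240 ug/mL stock, diluted two-fold in DMSO and then twenty-fold in sterile water. Final test concentrations spanned 0.0626 to 128 ug/mL with 2.5% (V/V) DMSO, and MIC90 was read by CLSI broth microdilution.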

Q: `CC(C)(O/N=C(\C(=O)N[C@@H]1C(=O)N2C(C(=O)[O-])=C(C[n+]3cnc(N)c(NC(=O)CCNC(=O)c4cc(=O)c(O)cn4O)c3)CSC12)c1nc(N)sc1Cl)C(=O)O` (stereo partly shown) [Compound 18] was tested. Which MIC90 did it give?
A: 64 µg/mL (≈ 76.5 µM)

system: A. calcoaceticus ATCC15473; assay: as above; type: cell-based; details: Acinetobacter calcoaceticus; A. calcoaceticus ATCC15473; read-out: MIC90
Method in brief: as §1

Q: For `CC(C)(O/N=C(\C(=O)N[C@@H]1C(=O)N2C(C(=O)[O-])=C(C[n+]3cnc(N)c(NC(=O)CCNC(=O)c4cc(=O)c(O)cn4O)c3)CSC12)c1nc(N)sc1Cl)C(=O)O` (stereo partly shown) [Compound 18], which MIC90 is on record?
A: 1 µg/mL (≈ 1.2 µM)

system: A. baumannii 49; assay: as above; type: cell-based; details: Acinetobacter baumannii; A. baumannii 49; read-out: MIC90
Method in brief: as §1

Q: For `CC(C)(O/N=C(\C(=O)N[C@@H]1C(=O)N2C(C(=O)[O-])=C(C[n+]3cnc(N)c(NC(=O)CCNC(=O)c4cc(=O)c(O)cn4O)c3)CSC12)c1nc(N)sc1Cl)C(=O)O` (stereo partly shown) [Compound 18], which MIC90 is on record?
A: 8 µg/mL (≈ 9.57 µM)

system: K. pneumoniae β10; assay: as above; type: cell-based; details: Klebsiella pneumoniae; K. pneumoniae β10; read-out: MIC90
Method in brief: as §1

Q: Which MIC90 does the source give for `CC(C)(O/N=C(\C(=O)N[C@@H]1C(=O)N2C(C(=O)[O-])=C(C[n+]3cnc(N)c(NC(=O)CCNC(=O)c4cc(=O)c(O)cn4O)c3)CSC12)c1nc(N)sc1Cl)C(=O)O` (stereo partly shown) [Compound 18] here?
A: 4 µg/mL (≈ 4.78 µM)

system: A. baumannii 46; assay: as above; type: cell-based; details: Acinetobacter baumannii; A. baumannii 46; read-out: MIC90
Method in brief: as §1

Q: How did the MIC90 turn out when `CC(C)(O/N=C(\C(=O)N[C@@H]1C(=O)N2C(C(=O)[O-])=C(C[n+]3cnc(N)c(NC(=O)CCNC(=O)c4cc(=O)c(O)cn4O)c3)CSC12)c1nc(N)sc1Cl)C(=O)O` (stereo partly shown) [Compound 18] was run?
A: 128 µg/mL (≈ 153 µM)

system: M. catarrhalis 2524; assay: as above; type: cell-based; details: Moraxella catarrhalis; M. catarrhalis 2524; read-out: MIC90
Method in brief: as §1

Q: How did the MIC90 turn out when `CC(C)(O/N=C(\C(=O)N[C@@H]1C(=O)N2C(C(=O)[O-])=C(C[n+]3cnc(N)c(NC(=O)CCNC(=O)c4cc(=O)c(O)cn4O)c3)CSC12)c1nc(N)sc1Cl)C(=O)O` (stereo partly shown) [Compound 18] was run?
A: 0.5 µg/mL (≈ 0.598 µM)

system: K. pneumoniae β14; assay: as above; type: cell-based; details: Klebsiella pneumoniae, read-out: MIC90
Method in brief: as §1

Q: For `CC(C)(O/N=C(\C(=O)N[C@@H]1C(=O)N2C(C(=O)[O-])=C(C[n+]3cnc(N)c(NC(=O)CCNC(=O)c4cc(=O)c(O)cn4O)c3)CSC12)c1nc(N)sc1Cl)C(=O)O` (stereo partly shown) [Compound 18], which MIC90 is on record?
A: 128 µg/mL (≈ 153 µM)

system: P. aeruginosa 1912E; assay: as above; type: cell-based; details: Pseudomonas aeruginosa, 1912E, read-out: MIC90
Method in brief: as §1

Q: `CC(C)(O/N=C(\C(=O)N[C@@H]1C(=O)N2C(C(=O)[O-])=C(C[n+]3cnc(N)c(NC(=O)CCNC(=O)c4cc(=O)c(O)cn4O)c3)CSC12)c1nc(N)sc1Cl)C(=O)O` (stereo partly shown) [Compound 18] was tested. Which MIC90 did it give?
A: 1 µg/mL (≈ 1.2 µM)

system: K. pneumoniae β9; assay: as above; type: cell-based; details: Klebsiella pneumoniae, K. pneumoniae β9; read-out: MIC90
Method in brief: as §1

Q: How did the MIC90 turn out when `CC(C)(O/N=C(\C(=O)N[C@@H]1C(=O)N2C(C(=O)[O-])=C(C[n+]3cnc(N)c(NC(=O)CCNC(=O)c4cc(=O)c(O)cn4O)c3)CSC12)c1nc(N)sc1Cl)C(=O)O` (stereo partly shown) [Compound 18] was run?
A: 8 µg/mL (≈ 9.57 µM)

system: K. pneumoniae β11; assay: as above; type: cell-based; details: Klebsiella pneumoniae; K. pneumoniae β11; read-out: MIC90
Method in brief: as §1

Q: For `CC(C)(O/N=C(\C(=O)N[C@@H]1C(=O)N2C(C(=O)[O-])=C(C[n+]3cnc(N)c(NC(=O)CCNC(=O)c4cc(=O)c(O)cn4O)c3)CSC12)c1nc(N)sc1Cl)C(=O)O` (stereo partly shown) [Compound 18], which MIC90 is on record?
A: 64 µg/mL (≈ 76.5 µM)

system: K. pneumoniae β13; assay: as above; type: cell-based; details: Klebsiella pneumoniae, K. pneumoniae β13; read-out: MIC90
Method in brief: as §1

Q: For `CC(C)(O/N=C(\C(=O)N[C@@H]1C(=O)N2C(C(=O)[O-])=C(C[n+]3cnc(N)c(NC(=O)CCNC(=O)c4cc(=O)c(O)cn4O)c3)CSC12)c1nc(N)sc1Cl)C(=O)O` (stereo partly shown) [Compound 18], which MIC90 is on record?
A: 4 µg/mL (≈ 4.78 µM)

system: E. coli β4; assay: as above; type: cell-based; details: Escherichia coli, read-out: MIC90
Method in brief: as §1

Q: Which MIC90 does the source give for `CC(C)(O/N=C(\C(=O)N[C@@H]1C(=O)N2C(C(=O)[O-])=C(C[n+]3cnc(N)c(NC(=O)CCNC(=O)c4cc(=O)c(O)cn4O)c3)CSC12)c1nc(N)sc1Cl)C(=O)O` (stereo partly shown) [Compound 18] here?
A: 16 µg/mL (≈ 19.1 µM)

system: P. aeruginosa 6065Y; assay: as above; type: cell-based; details: Pseudomonas aeruginosa, read-out: MIC90
Method in brief: as §1

Q: Which MIC90 does the source give for `CC(C)(O/N=C(\C(=O)N[C@@H]1C(=O)N2C(C(=O)[O-])=C(C[n+]3cnc(N)c(NC(=O)CCNC(=O)c4cc(=O)c(O)cn4O)c3)CSC12)c1nc(N)sc1Cl)C(=O)O` (stereo partly shown) [Compound 18] here?
A: 2 µg/mL (≈ 2.39 µM)

system: P. aeruginosa 37; assay: as above; type: cell-based; details: Pseudomonas aeruginosa, 37, P. aeruginosa 37; read-out: MIC90
Method in brief: as §1

Q: `CC(C)(O/N=C(\C(=O)N[C@@H]1C(=O)N2C(C(=O)[O-])=C(C[n+]3cnc(N)c(NC(=O)CCNC(=O)c4cc(=O)c(O)cn4O)c3)CSC12)c1nc(N)sc1Cl)C(=O)O` (stereo partly shown) [Compound 18] was tested. Which MIC90 did it give?
A: 0.25 µg/mL (≈ 0.299 µM)

system: P. aeruginosa 43; assay: as above; type: cell-based; details: Pseudomonas aeruginosa; P. aeruginosa 43; read-out: MIC90
Method in brief: as §1

Q: With `CC(C)(O/N=C(\C(=O)N[C@@H]1C(=O)N2C(C(=O)[O-])=C(C[n+]3cnc(N)c(NC(=O)CCNC(=O)c4cc(=O)c(O)cn4O)c3)CSC12)c1nc(N)sc1Cl)C(=O)O` (stereo partly shown) [Compound 18] as the molecule, how does the MIC90 read?
A: 0.25 µg/mL (≈ 0.299 µM)

system: A. baumannii 52; assay: as above; type: cell-based; details: Acinetobacter baumannii; A. baumannii 52; read-out: MIC90
Method in brief: as §1

Q: Which MIC90 does the source give for `CC(C)(O/N=C(\C(=O)N[C@@H]1C(=O)N2C(C(=O)[O-])=C(C[n+]3cnc(N)c(NC(=O)CCNC(=O)c4cc(=O)c(O)cn4O)c3)CSC12)c1nc(N)sc1Cl)C(=O)O` (stereo partly shown) [Compound 18] here?
A: 2 µg/mL (≈ 2.39 µM)

system: E. coli AG100; assay: as above; type: cell-based; details: Escherichia coli, AG100, E. coli AG100; read-out: MIC90
Method in brief: as §1

Q: With `CC(C)(O/N=C(\C(=O)N[C@@H]1C(=O)N2C(C(=O)[O-])=C(C[n+]3cnc(N)c(NC(=O)CCNC(=O)c4cc(=O)c(O)cn4O)c3)CSC12)c1nc(N)sc1Cl)C(=O)O` (stereo partly shown) [Compound 18] as the molecule, how does the MIC90 read?
A: 2 µg/mL (≈ 2.39 µM)

system: K. pneumoniae 2011E; assay: as above; type: cell-based; details: Klebsiella pneumoniae, 2011E, K. pneumoniae 2011E; read-out: MIC90
Method in brief: as §1

Q: With `CC(C)(O/N=C(\C(=O)N[C@@H]1C(=O)N2C(C(=O)[O-])=C(C[n+]3cnc(N)c(NC(=O)CCNC(=O)c4cc(=O)c(O)cn4O)c3)CSC12)c1nc(N)sc1Cl)C(=O)O` (stereo partly shown) [Compound 18] as the molecule, how does the MIC90 read?
A: 16 µg/mL (≈ 19.1 µM)

system: P. aeruginosa 40; assay: as above; type: cell-based; details: Pseudomonas aeruginosa, 40, P. aeruginosa 40; read-out: MIC90
Method in brief: as §1

Q: For `CC(C)(O/N=C(\C(=O)N[C@@H]1C(=O)N2C(C(=O)[O-])=C(C[n+]3cnc(N)c(NC(=O)CCNC(=O)c4cc(=O)c(O)cn4O)c3)CSC12)c1nc(N)sc1Cl)C(=O)O` (stereo partly shown) [Compound 18], which MIC90 is on record?
A: 2 µg/mL (≈ 2.39 µM)
